Test system: CBS138 strain (wild strain)
Test: Determination of 50% inhibitory concentration of antifungal drug on wild strain (turbidity at OD 600)
Type: cell-based, Candida glabrata
Settings: Nakaseomyces glabratus, SD medium, 30° C., 20 hours, turbidity at OD 600 decreased to about 50%

| IC50 [µM] | Structure (SMILES) |
| --- | --- |
| 50 | OC(Cn1cncn1)(Cn1cncn1)c1ccc(F)cc1F [fluconazole] |
| 48 | CN(C/C=C/C#CC(C)(C)C)Cc1cccc2ccccc12 [terbinafine] |
